Reference: patent publication US8758816B2, “Compositions comprising azelastine and methods of use thereof” (priority 2004, dated 2014)

Tested on: patients with seasonal allergic rhinitis (SAR)
Assay: MP 428 two-week randomized double-blind study: Total Nasal Symptom Score (TNSS), change from baseline
Type: in vivo, human
Parameters: key to Change from Baseline in AM TNSS, Mean / Change from Baseline in AM TNSS, LS Mean / Change from Baseline in AM TNSS, Median: TNSS sum of 4 symptoms each 0-3 (0=none, 3=severe); change from baseline
Settings: for AUC of Change from Baseline in TNSS (AM and PM Combined), Mean / AUC of Change from Baseline in TNSS (AM and PM Combined), Median / AUC of Change from Baseline in TNSS (AM and PM Combined), LS Mean: Day 1 to Day 14; for AUC of Change from Baseline in TNSS (AM and PM Combined), LS Mean: ANCOVA
Description: A two-week, randomized, double-blind study, which evaluated the effects of the co-administration of ASTELIN® (azelastine hydrochloride (HCl)) and FLONASE® (fluticasone propionate) compared to either product alone in patients with seasonal allergic rhinitis (SAR) was conducted during the 2006 Texas mountain cedar season. After a 5-day placebo lead-in period, 151 patients with moderate-to-severe allergic rhinitis symptoms were randomized to either: (1) (49 total patients) ASTELIN® (azelastine hydrochloride (HCl)) plus placebo saline nasal spray 2 sprays per nostril, 15 minutes apart, twice daily (AM & PM); (2) (50 total patients) FLONASE® (fluticasone propionate) plus placebo saline nasal spray, 2 sprays per nostril, 15 minutes apart, once daily (AM) and two sessions of placebo saline nasal spray, 2 sprays per nostril, 15 minutes apart (PM); or (3) (52 total patients) the co-administration of ASTELIN® (azelastine hydrochloride (HCl)) 2 sprays per nostril plus FLONASE® (fluticasone propionate) 2 sprays per nostril (AM), 15 minutes apart, and ASTELIN® (azelastine hydrochloride (HCl)) 2 sprays per nostril plus placebo saline nasal spray, 15 minutes apart, (PM) for a 2-week double-blind treatment period.
The primary efficacy variable was the change from baseline in the Total Nasal Symptom Score (TNSS), which comprised sneezing, itchy nose, runny nose, and nasal congestion (individual symptoms scores were assigned a value between 0 and 3, where 0=no symptoms and 3=severe symptoms). This study was not statistically designed to assess the differences between ASTELIN® and FLONASE®.

[1] = Day 12, Per-Protocol Population
[2] = Day 13, Intent-to-Treat Population
[3] = Day 13, Per-Protocol Population
[4] = Day 14, Intent-to-Treat Population
[5] = Day 14, Per-Protocol Population
[6] = Overall (Day 2 to Day 14), Intent-to-Treat Population
[7] = Overall (Day 2 to Day 14), Per-Protocol Population

Compound: CCC(=O)O[C@]1(C(=O)SCF)[C@H](C)C[C@H]2[C@@H]3C[C@H](F)C4=CC(=O)C=C[C@]4(C)[C@@]3(F)[C@@H](O)C[C@@]21C [Fluticasone, fluticasone propionate]
- Percent Change from Baseline in PM TNSS, Median (Day 12, Intent-to-Treat Population): −31.82%
- Change from Baseline in AM and PM Combined TNSS, LS Mean (Day 12, Intent-to-Treat Population, ANCOVA model): −6.12
- Change from Baseline in AM and PM Combined TNSS, LS Mean [1]: −6.16
- Change from Baseline in AM and PM Combined TNSS, Mean [1]: −6.20
- Change from Baseline in AM and PM Combined TNSS, Median [1]: −5.17
- Percent Change from Baseline in AM and PM Combined TNSS, LS Mean [1]: −31.45%
- Percent Change from Baseline in AM and PM Combined TNSS, Mean [1]: −31.50%
- Percent Change from Baseline in AM and PM Combined TNSS, Median [1]: −27.78%
- Change from Baseline in AM TNSS, LS Mean [2]: −3.38
- Change from Baseline in AM TNSS, Mean [2]: −3.32
- Change from Baseline in AM TNSS, Median [2]: −3.00
- Change from Baseline in AM and PM Combined TNSS, Mean [2]: −6.83
- Change from Baseline in AM and PM Combined TNSS, Median [2]: −6.20
- Change from Baseline in PM TNSS, LS Mean [2]: −3.57
- Change from Baseline in PM TNSS, Mean [2]: −3.51
- Change from Baseline in PM TNSS, Median [2]: −3.00
- Percent Change from Baseline in AM TNSS, LS Mean [2]: −34.62%
- Percent Change from Baseline in AM TNSS, Mean [2]: −34.03%
- Percent Change from Baseline in AM TNSS, Median [2]: −28.36%
- Percent Change from Baseline in AM and PM Combined TNSS, LS Mean [2]: −35.63%
- Percent Change from Baseline in AM and PM Combined TNSS, Mean [2]: −34.97%
- Percent Change from Baseline in AM and PM Combined TNSS, Median [2]: −30.43%
- Percent Change from Baseline in PM TNSS, LS Mean [2]: −36.56%
- Percent Change from Baseline in PM TNSS, Mean [2]: −35.75%
- Percent Change from Baseline in PM TNSS, Median [2]: −33.33%
- Change from Baseline in AM and PM Combined TNSS, LS Mean (Day 13, Intent-to-Treat Population, ANCOVA model): −6.95
- Change from Baseline in AM and PM Combined TNSS, LS Mean [3]: −7.03
- Change from Baseline in AM and PM Combined TNSS, Mean [3]: −7.01
- Change from Baseline in AM and PM Combined TNSS, Median [3]: −6.50
- Percent Change from Baseline in AM and PM Combined TNSS, LS Mean [3]: −35.99%
- Percent Change from Baseline in AM and PM Combined TNSS, Mean [3]: −35.73%
- Percent Change from Baseline in AM and PM Combined TNSS, Median [3]: −30.43%
- Change from Baseline in AM TNSS, LS Mean [4]: −3.33
- Change from Baseline in AM TNSS, Mean [4]: −3.28
- Change from Baseline in AM TNSS, Median [4]: −3.00
- Change from Baseline in AM and PM Combined TNSS, Mean [4]: −6.91
- Change from Baseline in AM and PM Combined TNSS, Median [4]: −5.85
- Change from Baseline in PM TNSS, LS Mean [4]: −3.70
- Change from Baseline in PM TNSS, Mean [4]: −3.63
- Change from Baseline in PM TNSS, Median [4]: −3.00
- Percent Change from Baseline in AM TNSS, LS Mean [4]: −33.54%
- Percent Change from Baseline in AM TNSS, Mean [4]: −33.12%
- Percent Change from Baseline in AM TNSS, Median [4]: −31.03%
- Percent Change from Baseline in AM and PM Combined TNSS, LS Mean [4]: −35.62%
- Percent Change from Baseline in AM and PM Combined TNSS, Mean [4]: −35.00%
- Percent Change from Baseline in AM and PM Combined TNSS, Median [4]: −28.71%
- Percent Change from Baseline in PM TNSS, LS Mean [4]: −37.70%
- Percent Change from Baseline in PM TNSS, Mean [4]: −36.79%
- Percent Change from Baseline in PM TNSS, Median [4]: −33.33%
- Change from Baseline in AM and PM Combined TNSS, LS Mean (Day 14, Intent-to-Treat Population, ANCOVA model): −7.02
- Change from Baseline in AM and PM Combined TNSS, LS Mean [5]: −7.15
- Change from Baseline in AM and PM Combined TNSS, Mean [5]: −7.14
- Change from Baseline in AM and PM Combined TNSS, Median [5]: −6.00
- Percent Change from Baseline in AM and PM Combined TNSS, LS Mean [5]: −36.26%
- Percent Change from Baseline in AM and PM Combined TNSS, Mean [5]: −36.03%
- Percent Change from Baseline in AM and PM Combined TNSS, Median [5]: −34.31%
- AUC of Change from Baseline in TNSS (AM and PM Combined), Mean (Intent-to-Treat Population): −64.53
- AUC of Change from Baseline in TNSS (AM and PM Combined), Median (Intent-to-Treat Population): −51.13
- AUC of Change from Baseline in TNSS (AM and PM Combined), LS Mean (Intent-to-Treat Population): −65.00
- Change from Baseline in AM TNSS, LS Mean [6]: −2.55
- Change from Baseline in AM TNSS, Mean [6]: −2.57
- Change from Baseline in AM TNSS, Median [6]: −2.14
- Change from Baseline in AM and PM Combined TNSS, Mean [6]: −5.06
- Change from Baseline in AM and PM Combined TNSS, Median [6]: −3.91
- Change from Baseline in PM TNSS, LS Mean [6]: −2.71
- Change from Baseline in PM TNSS, Mean [6]: −2.43
- Change from Baseline in PM TNSS, Median [6]: −1.86
- Percent Change from Baseline in AM TNSS, LS Mean [6]: −26.39%
- Percent Change from Baseline in AM TNSS, Mean [6]: −26.49%
- Percent Change from Baseline in AM TNSS, Median [6]: −23.89%
- Percent Change from Baseline in AM and PM Combined TNSS, LS Mean [6]: −27.13%
- Percent Change from Baseline in AM and PM Combined TNSS, Mean [6]: −26.12%
- Percent Change from Baseline in AM and PM Combined TNSS, Median [6]: −21.93%
- Percent Change from Baseline in PM TNSS, LS Mean [6]: −27.75%
- Percent Change from Baseline in PM TNSS, Mean [6]: −24.98%
- Percent Change from Baseline in PM TNSS, Median [6]: −20.34%
- Change from Baseline in AM and PM Combined TNSS, LS Mean (Overall (Day 2 to Day 14), Intent-to-Treat Population, ANCOVA model): −5.24
- Change from Baseline in AM and PM Combined TNSS, LS Mean [7]: −5.24
- Change from Baseline in AM and PM Combined TNSS, Mean [7]: −5.14
- Change from Baseline in AM and PM Combined TNSS, Median [7]: −3.91
- Percent Change from Baseline in AM and PM Combined TNSS, LS Mean [7]: −27.12%
- Percent Change from Baseline in AM and PM Combined TNSS, Mean [7]: −26.46%
- Percent Change from Baseline in AM and PM Combined TNSS, Median [7]: −21.93%
- AUC of Change from Baseline in TNSS (AM and PM Combined), Mean (Per-Protocol Population): −65.66
- AUC of Change from Baseline in TNSS (AM and PM Combined), Median (Per-Protocol Population): −51.13
- AUC of Change from Baseline in TNSS (AM and PM Combined), LS Mean (Per-Protocol Population): −65.38
